Measured values taken from patent US20240158348A1, “HERBICIDAL CYCLIC AMIDES N-SUBSTITUTED WITH A HALOALKYLSULFONYLANILIDE GROUP” (FMC Corporation, priority 2021, published 2024).

Experiments:
Type in all cases: in vivo
soybean (Glycine max) = test: Test C postemergence, soybean; conditions: for Soybean plant response rating: visual injury, 0 to 100 scale (0 no effect, 100 complete control); for Plant response rating (0 to 100 scale), Soybean: 0 is no effect, 100 is complete control
From the text: (§1) Seeds of plant species selected from blackgrass (Alopecurus myosuroides), corn (Zea mays), foxtail, giant (giant foxtail, Setaria faberi), goosegrass (Eleusine indica), kochia (Bassia scoparia), oat, wild (wild oat, Avena fatua), pigweed, palmer (palmer amaranth, Amaranthus palmeri), ragweed (common ragweed, Ambrosia artemisiifolia), ryegrass, Italian (Italian ryegrass, Lolium multiflorum), soybean (Glycine max) and wheat (Triticum aestivum) were planted into a blend of loam soil and sand and treated preemergence with a directed soil spray using test chemicals formulated in a non-phytotoxic solvent mixture which included a surfactant.
(§2) At the same time, plants selected from these crop and weed species and also galium (catchweed bedstraw, Galium aparine) and horseweed (Erigeron canadensis) were planted in pots containing the same blend of loam soil and sand and treated with postemergence applications of test chemicals formulated in the same manner. Plants ranged in height from 2 to 10 cm and were in the one- to two-leaf stage for the postemergence treatment. Treated plants and untreated controls were maintained in a greenhouse for 10 or 12 days, after which time all treated plants were compared to untreated controls and visually evaluated for injury. Plant response ratings, summarized in Table A, are based on a 0 to 100 scale where 0 is no effect and 100 is complete control. A dash (-) response means no test result.

corn (Zea mays) = test: Test C postemergence, corn; conditions: for Corn plant response rating: visual injury, 0 to 100 scale (0 no effect, 100 complete control); for Plant response rating (0 to 100 scale), Corn: 0 is no effect, 100 is complete control
From the text: as §1, §2

[1] = system: blackgrass (Alopecurus myosuroides); test: Test C preemergence, blackgrass; conditions: 0 is no effect, 100 is complete control
From the text: as §1, §2

[2] = system: blackgrass (Alopecurus myosuroides); test: Test C postemergence, blackgrass; conditions: 125 g ai/ha Postemergence; 0 is no effect, 100 is complete control

SMILES | Soybean plant response rating (soybean (Glycine max); 31 g ai/ha Postemergence) | Soybean plant response rating (soybean (Glycine max); 125 g ai/ha Postemergence) | Corn plant response rating (corn (Zea mays); 31 g ai/ha Postemergence) | Corn plant response rating (corn (Zea mays); 125 g ai/ha Postemergence) | Plant response rating (0 to 100 scale), Blackgrass ([1]; 31 g ai/ha Preemergence) | Plant response rating (0 to 100 scale), Blackgrass ([1]; 125 g ai/ha Preemergence) | Plant response rating (0 to 100 scale), Soybean (soybean (Glycine max); 125 g ai/ha Postemergence) | Plant response rating (0 to 100 scale), Corn (corn (Zea mays); 125 g ai/ha Postemergence) | Plant response rating (0 to 100 scale), Blackgrass [2]
Cc1c(NS(=O)(=O)C(F)(F)F)cc(N2CCC(OCC3CC3)C2=O)c(C)c1F (centres unmarked) [Compound 63] | 50 | 100 | 0 | 50 | 70 | 90 | – | – | –
Cc1cc(C)c(N(C(=O)OC(C)C)S(=O)(=O)C(F)(F)F)cc1N1CCC(OC2CC2)C1=O (centres unmarked) [Compound 18] | 50 | – | 0 | – | 0 | 0 | 80 | 0 | 0
COC(=O)N(c1cc(N2CCC(OC3CC3)C2=O)c(C)cc1Cl)S(=O)(=O)C(F)(F)F (centres unmarked) [Compound 40] | 70 | 80 | 80 | – | 50 | 90 | – | 100 | 60
Cc1c(NS(=O)(=O)C(F)(F)F)cc(N2CCCC(OC3CCC3)C2=O)c(C)c1F (centres unmarked) [Compound 36] | 70 | 70 | 0 | – | 80 | 100 | – | 20 | 30
CCOC(=O)N(c1cc(N2CCC(OC3CC3)C2=O)c(C)cc1C)S(=O)(=O)C(F)(F)F (centres unmarked) [Compound 19] | 80 | – | 0 | – | 0 | 40 | 80 | 20 | 40
Cc1cc(C)c(N2CCC(OCC3CC3(F)F)C2=O)cc1NS(=O)(=O)C(F)(F)F (centres unmarked) [Compound 41] | 90 | 90 | 40 | 90 | 80 | 100 | – | – | –
CC#CCOC1CCN(c2cc(NS(=O)(=O)C(F)(F)F)c(C)cc2C)C1=O (centres unmarked) [Compound 60] | 80 | 100 | 90 | 100 | 80 | 90 | – | – | –
Cc1c(N2CCC(OC3CCC3)C2=O)cc(N(C(=O)OCC(C)C)S(=O)(=O)C(F)(F)F)c(C)c1C (centres unmarked) [Compound 48] | 30 | 70 | 0 | 50 | – | – | – | – | –
Cc1c(N2CCC(OC3CC3)C2=O)cc(N(C(=O)OCC(C)C)S(=O)(=O)C(F)(F)F)c(C)c1C (centres unmarked) [Compound 50] | 60 | 80 | 30 | 90 | – | – | – | – | –
Cc1cc(C)c(N(COC(=O)C(C)(C)C)S(=O)(=O)C(F)(F)F)cc1N1CCC(OCC2CC2)C1=O (centres unmarked) [Compound 53] | 50 | 60 | 20 | 60 | – | – | – | – | –
Cc1cc(C)c(N(COC(=O)C(C)(C)C)S(=O)(=O)C(F)(F)F)cc1N1CCC(OCC2CC(F)(F)C2)C1=O (centres unmarked) [Compound 55] | 50 | 70 | 0 | 70 | – | – | – | – | –
Cc1c(NS(=O)(=O)C(F)(F)F)cc(N2CCC(OC3CC3)C2=O)c(C)c1C (centres unmarked) [Compound 47] | 70 | 90 | 70 | 90 | – | – | – | – | –
Cc1cc(C)c(N(COC(=O)C(C)(C)C)S(=O)(=O)C(F)(F)F)cc1N1CCC(OCC2CCC2)C1=O (centres unmarked) [Compound 56] | 40 | 50 | 0 | 30 | – | – | – | – | –
Cc1c(NS(=O)(=O)C(F)(F)F)cc(N2CCC(OCC3CCC3)C2=O)c(C)c1F (centres unmarked) [Compound 64] | 60 | 90 | 0 | 10 | 20 | 70 | – | – | –
Cc1cc(C)c(N2CCC(OCC3CCC3(F)F)C2=O)cc1NS(=O)(=O)C(F)(F)F (centres unmarked) [Compound 52] | 60 | 70 | 0 | 60 | – | – | – | – | –
